According to patent US20240208937A1, “Compounds and Their Use for Treatment of Hemoglobinopathies” (Bristol-Myers Squibb Company, priority 2022, published 2024):

Columns and labels:
Type in all cases: cell-based
[1] = target: ZBTB7A (Zinc Finger And BTB Domain Containing 7A) (Homo sapiens (Human), UniProt O95365+Q96SW2); assay: HUDEP-2 ZBTB7A HiBiT degradation assay; settings: HUDEP-2 ZBTB7A HiBiT cells, 24 hours treatment, luminescence
Description: (§1) The HiBiT degradation assay for WIZ and ZBTB7A in HUDEP-2 cells was performed as described below. HUDEP-2 cells engineered to express a HiBiT tag in either the WIZ (Widely interspaced zinc finger) or ZBTB7A (Zinc Finger And BTB Domain Containing 7A) proteins were maintained in low attachment flasks in StemSpan SFEM II media supplemented with Penicillin-Streptomycin (50 U/mL), rhSCF (50 ng/mL), rhEPO (3 IU/mL), dexamethasone (0.4 μg/mL) and doxycycline (1 μg/mL). Prior to start of the assay, cell count and viability were measured by trypan blue exclusion using the Vi-cell XR cell viability analyzer. For the HUDEP-2 WIZ HiBiT assay, cells were transferred to a 50 mL conical and centrifuged at 500 g for five minutes. Cells were resuspended in fresh StemSpan SFEM II media supplemented with Penicillin-Streptomycin (50 U/mL), rhSCF (50 ng/mL), rhEPO (3 IU/mL), dexamethasone (0.4 μg/mL) and doxycycline (1 μg/mL) at a density of 1.0×10^6 cells/ml. Forty microliters of cell suspension was dispensed into 384-well Low Flange White Flat Bottom Polystyrene TC-treated Microplates containing pre-dispensed compounds, using a VIAFLO 384 liquid hander, and placed in a 37° C. incubator with 5% CO2. […] After 24 hours of treatment, 40 μL Nano-Glo HiBiT Lytic Detection System reagent was dispensed into each well using a VIAFLO 384 liquid hander. Plates were incubated for 25 minutes at room temperature and the luminescence was read as relative luminescent units using the EnVision plate reader. EC50 and Y-min values were calculated using curves calculated from dotmatics software after the normalization to the DMSO control of 10 different concentrations: 10, 3.33, 1.11, 0.37, 0.12, 0.04 0.0137, 0.0046, 0.0015 and 0.0005 μM respectively.
For the HUDEP-2 ZBTB7A HiBiT assay, cell count and viability were measured by trypan blue exclusion using the Vi-cell XR cell viability analyzer and the cells were transferred to a 50 mL conical and centrifuged at 500 g for five minutes. Cells were resuspended in fresh IMDM media supplemented with L-Glutamine (1×), Penicillin-Streptomycin (50 U/mL), holo-transferrin (330 μg/mL), heparin (2 IU/mL), r-human Insulin (10 μg/mL), rhEPO (3 IU/mL), rhSCF (100 ng/mL)+Dox (1 μg/mL) and 5% human plasma in low attachment flasks, which were placed in a 37° C. incubator with 5% CO2. After 48 hours, cell count and viability were measured by trypan blue exclusion using the Vi-cell XR cell viability analyzer. The HUDEP-2 ZBTB7A cells were transferred to a 50 mL conical, centrifuged at 500 g for five minutes and resuspended at a density of 1.0×10^6 cells/ml in IMDM media supplemented with L-Glutamine (1×), Penicillin-Streptomycin (50 U/mL), holo-transferrin (330 μg/mL), heparin (2 IU/mL), r-human Insulin (10 μg/mL), rhEPO (3 IU/mL), rhSCF (100 ng/mL)+Dox (1 μg/mL) and 5% human plasma. Forty microliters of cell suspension was dispensed into 384-well Low Flange White Flat Bottom Polystyrene TC-treated Microplates containing pre-dispensed compounds, using a VIAFLO 384 liquid hander, and placed in a 37° C. incubator with 5% CO2. […] After 24 hours of treatment, 40 μL Nano-Glo HiBiT Lytic Detection System reagent was dispensed into each well using a VIAFLO 384 liquid hander. Plates were incubated for 25 minutes at room temperature and the luminescence was read as relative luminescent units using the EnVision plate reader. EC50 and Y-min values were calculated using curves calculated from dotmatics software after the normalization to the DMSO control of 10 different concentrations: 10, 3.33, 1.11, 0.37, 0.12, 0.04 0.0137, 0.0046, 0.0015 and 0.0005 μM respectively.

[2] = test system: fetal hemoglobin (HbF) in GCSF-mobilized human CD34+ cells; assay: HbF Induction Assay; settings: 168 h; compound 1 μM, 7 days, erythroid-differentiated human CD34+ cells, flow cytometry; DMSO baseline 15% HbF positive cells
Description: The expansion, differentiation, and maturation of GCSF-mobilized human CD34^+ (STEMCELL Technologies Inc.) cells towards erythroid lineage cells were performed using a two-phase liquid culture model (Moutouh-de Parseval L A, el al. Pomalidomide and lenalidomide regulate erythropoiesis and fetal hemoglobin production in human CD34+ cells. J Clin Invest. 2008 January; 118(1):248-58). In the first phase, GCSF-mobilized human CD34^+ cells were cultured using StemSpan™-XF (STEMCELL Technologies Inc.) media supplemented with 1×BIT 9500, Penicillin-Streptomycin (50 U/mL), 100 ng/mL recombinant human (rh) SCF, 100 ng/mL rh Flt3-L, 20 ng/mL rh IL-3 and 10 ng/mL rh EPO and the growth of cells maintained in exponential phase for 7 days at 37° C. with 5% CO2 to support expansion and progenitor differentiation prior the second phase and treatment with compounds. In the second phase, culture media was changed to StemSpan™-XF media supplemented with 1×BIT 9500, Penicillin-Streptomycin (50 U/mL), 50 ng/mL rh SCF and 40 ng/mL rh EPO to promote further differentiation and maturation of the erythrocytes and to initiate treatment with compounds. Compounds were dispensed in duplicate at a final concentration of 1 μM in a final DMSO amount of 0.1%. Fresh compound was reapplied, and cell density was kept constant every 2 days. After 7 days, the cells were assessed for viability and fetal hemoglobin expression using flow cytometry. For viability analysis, eBioscience™ Fixable Viability Dye eFluor™ 780 (1:1000, eBioscience; Cat #65-0865-14) was added to the cells and kept in the dark for 10 minutes. For analysis of fetal hemoglobin (HbF), cells were fixed and permeabilized using Fixation Buffer (BioLegend; Cat #420801 and Intracellular staining permeabilization buffer (BioLegend, Cat #420201) following manufacturer's instructions. During permeabilization step, cells were stained with PE-labelled Mouse Anti-Human Fetal Hemoglobin (1:10, clone 2D12; BD Biosciences, Cat #BDB560041) incubated at room temperature for 20 minutes and protected from light. PE-labelled Mouse anti-IgG k, (1:10 clone MOPC-21; BD Biosciences, Cat# BDB551436) was used as an isotype control.
Viability, cell count, and fetal hemoglobin (HbF) levels were measured using an Attune NXT flow cytometer (Thermofisher) and the data analyzed using the FCS express software (De Novo Software). In Table 1 below, the effects of compounds of formula (I), formula (I′), formula (II), formula (II′), and formula (III) on % viable cells, viable cell count, on the % HbF positive cells and the median fluorescent intensity (MFI) of the HbF positive cell population compared to the DMSO controls can be viewed. All gates were set using the isotype negative control. The baseline % HbF positive cells for DMSO-treated control cells was 15%. Compounds of formula (I), formula (I′), formula (II), formula (II′), and formula (III) having HbF induction between 66% and 100% are level A. Compounds of formula (I), formula (I′), formula (II), formula (II′), and formula (III) having HbF induction between 33% and 66% are level B. Compounds of formula (I), formula (I′), formula (II), formula (II′), and formula (III) having HbF induction % less than 33% are level C. For certain compounds of formula (I), formula (I′), formula (II), formula (II′), and formula (III) % HbF induction values 0-33% (activity level C), between 33% and 66% (activity level B), and between 67% and 100% (activity level A) are shown in Table 2 below.

[3] = target: WIZ (Widely interspaced zinc finger) (Homo sapiens (Human), UniProt O95785+Q96SW2); assay: HUDEP-2 WIZ HiBiT degradation assay; settings: HUDEP-2 WIZ HiBiT cells, 24 hours treatment, luminescence; for DC50: read-out: WIZ EC50
Description: as §1

Chain of WIZ (Widely interspaced zinc finger) (O95785 whole entry): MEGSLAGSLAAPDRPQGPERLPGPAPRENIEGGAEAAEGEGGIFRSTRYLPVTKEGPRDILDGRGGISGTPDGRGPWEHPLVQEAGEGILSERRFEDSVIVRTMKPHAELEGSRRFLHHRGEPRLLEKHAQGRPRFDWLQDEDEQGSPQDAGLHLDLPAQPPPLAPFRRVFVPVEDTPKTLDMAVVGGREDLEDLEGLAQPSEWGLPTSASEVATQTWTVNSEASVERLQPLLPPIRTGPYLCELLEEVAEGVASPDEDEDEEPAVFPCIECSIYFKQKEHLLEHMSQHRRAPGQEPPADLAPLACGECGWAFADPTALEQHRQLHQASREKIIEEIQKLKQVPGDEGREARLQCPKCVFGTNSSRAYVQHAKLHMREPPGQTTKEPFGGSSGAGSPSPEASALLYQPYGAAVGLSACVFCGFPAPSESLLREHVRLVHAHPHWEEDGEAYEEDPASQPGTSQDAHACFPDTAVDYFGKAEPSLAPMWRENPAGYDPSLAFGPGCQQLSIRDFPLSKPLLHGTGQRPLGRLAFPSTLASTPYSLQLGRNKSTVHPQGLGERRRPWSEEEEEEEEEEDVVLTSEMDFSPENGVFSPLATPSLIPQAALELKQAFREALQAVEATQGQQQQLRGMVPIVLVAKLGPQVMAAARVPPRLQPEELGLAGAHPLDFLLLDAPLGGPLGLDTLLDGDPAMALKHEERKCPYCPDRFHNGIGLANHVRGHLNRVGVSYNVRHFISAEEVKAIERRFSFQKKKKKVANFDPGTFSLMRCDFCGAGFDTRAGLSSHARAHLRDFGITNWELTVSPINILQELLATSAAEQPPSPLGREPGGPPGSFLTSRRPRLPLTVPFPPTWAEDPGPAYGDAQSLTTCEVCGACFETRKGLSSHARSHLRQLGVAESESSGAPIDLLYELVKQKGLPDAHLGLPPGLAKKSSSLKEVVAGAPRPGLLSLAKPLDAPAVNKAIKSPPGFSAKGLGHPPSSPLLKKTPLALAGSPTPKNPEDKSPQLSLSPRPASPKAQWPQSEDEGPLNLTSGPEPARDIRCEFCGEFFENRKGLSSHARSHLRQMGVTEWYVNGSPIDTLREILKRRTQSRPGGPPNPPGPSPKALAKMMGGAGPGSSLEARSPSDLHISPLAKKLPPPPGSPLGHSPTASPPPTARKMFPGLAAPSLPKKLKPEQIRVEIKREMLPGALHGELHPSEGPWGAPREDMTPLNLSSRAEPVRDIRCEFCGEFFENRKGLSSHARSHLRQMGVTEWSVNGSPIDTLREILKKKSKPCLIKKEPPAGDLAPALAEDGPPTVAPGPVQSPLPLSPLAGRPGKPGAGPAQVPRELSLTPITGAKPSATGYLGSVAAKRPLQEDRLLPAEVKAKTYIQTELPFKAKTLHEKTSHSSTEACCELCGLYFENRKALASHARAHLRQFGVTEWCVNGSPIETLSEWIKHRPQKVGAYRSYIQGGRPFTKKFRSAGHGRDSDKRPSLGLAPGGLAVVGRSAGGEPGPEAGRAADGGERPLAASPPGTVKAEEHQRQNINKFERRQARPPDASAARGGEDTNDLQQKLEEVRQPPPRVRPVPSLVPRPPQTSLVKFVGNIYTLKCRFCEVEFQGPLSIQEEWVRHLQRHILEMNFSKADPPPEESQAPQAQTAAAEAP
Chain of WIZ (Widely interspaced zinc finger) (Q96SW2 whole entry): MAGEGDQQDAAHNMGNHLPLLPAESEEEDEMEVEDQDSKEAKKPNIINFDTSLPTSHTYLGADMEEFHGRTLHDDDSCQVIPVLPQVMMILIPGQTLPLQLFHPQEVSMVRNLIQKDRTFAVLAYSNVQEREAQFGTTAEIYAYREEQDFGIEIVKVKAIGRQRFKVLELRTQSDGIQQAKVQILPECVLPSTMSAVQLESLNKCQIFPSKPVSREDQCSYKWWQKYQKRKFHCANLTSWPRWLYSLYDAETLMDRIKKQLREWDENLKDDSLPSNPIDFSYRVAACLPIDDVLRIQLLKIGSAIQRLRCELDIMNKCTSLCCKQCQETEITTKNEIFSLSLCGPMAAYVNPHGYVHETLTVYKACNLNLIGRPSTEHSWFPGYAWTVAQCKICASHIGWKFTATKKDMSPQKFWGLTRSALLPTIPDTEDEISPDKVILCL
Chain of WIZ (Widely interspaced zinc finger) (Q16531 whole entry partner): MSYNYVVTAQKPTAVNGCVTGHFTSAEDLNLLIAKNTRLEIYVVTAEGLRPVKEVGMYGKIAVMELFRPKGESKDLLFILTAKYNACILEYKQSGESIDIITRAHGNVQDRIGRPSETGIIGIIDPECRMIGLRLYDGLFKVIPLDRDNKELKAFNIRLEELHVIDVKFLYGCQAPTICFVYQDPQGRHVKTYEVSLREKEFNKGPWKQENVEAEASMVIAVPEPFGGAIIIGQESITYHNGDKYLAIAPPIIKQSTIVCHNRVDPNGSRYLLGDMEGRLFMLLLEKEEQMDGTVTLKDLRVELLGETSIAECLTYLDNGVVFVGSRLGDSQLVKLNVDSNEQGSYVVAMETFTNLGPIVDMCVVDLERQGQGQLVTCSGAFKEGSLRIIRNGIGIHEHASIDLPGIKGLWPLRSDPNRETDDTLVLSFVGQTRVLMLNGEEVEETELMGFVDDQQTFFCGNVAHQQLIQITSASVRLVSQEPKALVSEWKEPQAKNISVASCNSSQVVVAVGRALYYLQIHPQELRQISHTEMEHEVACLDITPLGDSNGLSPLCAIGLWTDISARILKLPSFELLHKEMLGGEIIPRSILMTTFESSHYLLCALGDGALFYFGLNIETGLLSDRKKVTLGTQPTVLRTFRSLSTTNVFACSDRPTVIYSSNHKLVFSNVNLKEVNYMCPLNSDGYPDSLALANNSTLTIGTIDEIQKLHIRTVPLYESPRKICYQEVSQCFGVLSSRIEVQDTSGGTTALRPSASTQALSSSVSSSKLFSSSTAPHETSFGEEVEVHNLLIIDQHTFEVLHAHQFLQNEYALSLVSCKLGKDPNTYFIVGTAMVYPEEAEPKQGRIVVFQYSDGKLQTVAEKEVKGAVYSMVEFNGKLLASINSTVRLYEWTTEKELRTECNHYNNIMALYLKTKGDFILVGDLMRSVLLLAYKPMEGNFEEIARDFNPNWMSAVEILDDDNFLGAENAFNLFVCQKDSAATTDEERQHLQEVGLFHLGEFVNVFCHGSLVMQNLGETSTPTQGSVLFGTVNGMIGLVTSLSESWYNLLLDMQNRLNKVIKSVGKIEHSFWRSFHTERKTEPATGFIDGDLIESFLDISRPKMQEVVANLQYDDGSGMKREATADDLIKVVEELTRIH
Chain of ZBTB7A (Zinc Finger And BTB Domain Containing 7A) (O95365 whole entry, the tested form may be a part): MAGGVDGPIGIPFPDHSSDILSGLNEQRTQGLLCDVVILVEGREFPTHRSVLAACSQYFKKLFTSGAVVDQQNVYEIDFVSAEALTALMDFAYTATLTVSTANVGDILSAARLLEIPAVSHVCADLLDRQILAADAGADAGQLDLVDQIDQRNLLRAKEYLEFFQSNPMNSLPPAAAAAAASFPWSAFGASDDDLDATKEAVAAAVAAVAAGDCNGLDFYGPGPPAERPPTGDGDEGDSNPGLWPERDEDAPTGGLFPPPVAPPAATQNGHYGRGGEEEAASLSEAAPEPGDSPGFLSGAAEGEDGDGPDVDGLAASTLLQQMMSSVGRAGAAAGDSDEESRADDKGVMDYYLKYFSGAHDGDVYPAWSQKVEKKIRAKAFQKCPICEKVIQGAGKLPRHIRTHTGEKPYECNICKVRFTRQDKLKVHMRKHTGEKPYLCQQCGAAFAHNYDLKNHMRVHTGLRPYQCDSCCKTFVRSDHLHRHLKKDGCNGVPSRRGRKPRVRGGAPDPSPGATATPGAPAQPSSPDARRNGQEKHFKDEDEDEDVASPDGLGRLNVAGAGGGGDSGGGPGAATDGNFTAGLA
Chain of ZBTB7A (Zinc Finger And BTB Domain Containing 7A) (Q96SW2 whole entry, the tested form may be a part): as the sequence (Q96SW2 whole entry) above
Chain of ZBTB7A (Zinc Finger And BTB Domain Containing 7A) (Q16531 whole entry partner, the tested form may be a part): as the sequence (Q16531 whole entry partner) above

Work on `Cc1cc(-c2cc3c(cc2Nc2cccc4c2C(=O)N(C2CCC(=O)NC2=O)C4=O)c(C)nn3C)ccn1` (stereo not drawn) [Compound 3, 4-((1,3-dimethyl-6-(2-methylpyridin-4-yl)-1H-indazol-5-yl)amino)-2-(2,6-dioxopiperidin-3-yl)isoindoline-1,3-dione] yielded an EC50 [1] of under 0.03 µM, an activation at 1 µM [2] of 66 to 100% and a DC50 [3] of 0.01 to 0.1 µM.

Work on `Cc1ncncc1Oc1ccc2c(cnn2C)c1Nc1cccc2c1C(=O)N(C1CCC(=O)NC1=O)C2=O` (stereo not drawn) [Compound 26, 2-(2,6-dioxopiperidin-3-yl)-4-((1-methyl-5-((4-methylpyrimidin-5-yl)oxy)-1H-indazol-4-yl)amino)isoindoline-1,3-dione] yielded an EC50 [1] of over 0.1 µM, an activation at 1 µM [2] of under 33% and a DC50 [3] of 0.01 to 0.1 µM.

In the case of `Cc1cc(-c2cc3c(cnn3C)cc2Nc2cccc3c2C(=O)N(C2CCC(=O)NC2=O)C3=O)ccn1` (stereo not drawn) [Compound 19, 2-(2,6-dioxopiperidin-3-yl)-4-((1-methyl-6-(2-methylpyridin-4-yl)-1H-indazol-5-yl)amino)isoindoline-1,3-dione], the EC50 [1] is reported as over 0.1 µM, the activation at 1 µM [2] is reported as 66 to 100% and the DC50 [3] is reported as over 0.1 µM.

`Cc1cc(-c2cc3c(cc2Nc2cccc4c2C(=O)N(C2CCC(=O)NC2=O)C4=O)N(C)C(=O)CC3)c(F)cn1` (stereo not drawn) [Compound 46, 2-(2,6-dioxopiperidin-3-yl)-4-((6-(5-fluoro-2-methylpyridin-4-yl)-1-methyl-2-oxo-1,2,3,4-tetrahydroquinolin-7-yl)amino)isoindoline-1,3-dione] was tested, and the EC50 [1] was under 0.03 µM, the activation at 1 µM [2] was 66 to 100% and the EC50 [3] was under 0.01 µM.

With `Cc1cc(-c2cc3c(cc2Nc2cccc4c2C(=O)N([C@H]2CCC(=O)NC2=O)C4=O)n(C)c(=O)n3C)ccn1` [Compound 41, (S)-4-((1,3-dimethyl-6-(2-methylpyridin-4-yl)-2-oxo-2,3-dihydro-1H-benzo[d]imidazol-5-yl)amino)-2-(2,6-dioxopiperidin-3-yl)isoindoline-1,3-dione] the EC50 [1] was under 0.03 µM, the activation at 1 µM [2] was 66 to 100% and the EC50 [3] was under 0.01 µM.

In the case of `O=C1CCC(N2C(=O)c3cccc(Nc4cc5cnn(C6CCOCC6)c5cc4Oc4cccc(F)c4)c3C2=O)C(=O)N1` (stereo not drawn) [Compound 16, 2-(2,6-dioxopiperidin-3-yl)-4-((6-(3-fluorophenoxy)-1-(tetrahydro-2H-pyran-4-yl)-1H-indazol-5-yl)amino)isoindoline-1,3-dione], the EC50 [1] is reported as over 0.1 µM, the activation at 1 µM [2] is reported as 66 to 100% and the EC50 [3] is reported as under 0.01 µM.

In the case of `Cc1nccc(-c2cc3c(cnn3C)cc2Nc2cccc3c2C(=O)N(C2CCC(=O)NC2=O)C3=O)c1C` (stereo not drawn) [Compound 29, 4-((6-(2,3-dimethylpyridin-4-yl)-1-methyl-1H-indazol-5-yl)amino)-2-(2,6-dioxopiperidin-3-yl)isoindoline-1,3-dione], the EC50 [1] is reported as over 0.1 µM, the activation at 1 µM [2] is reported as under 33% and the DC50 [3] is reported as 0.01 to 0.1 µM.

`Cn1ncc2cc(Nc3cccc4c3C(=O)N(C3CCC(=O)NC3=O)C4=O)c(-c3cccc(C(F)(F)F)c3)cc21` (stereo not drawn) [Compound 28, 2-(2,6-dioxopiperidin-3-yl)-4-((1-methyl-6-(3-(trifluoromethyl)phenyl)-1H-indazol-5-yl)amino)isoindoline-1,3-dione] showed an EC50 [1] of over 0.1 µM, an activation at 1 µM [2] of under 33% and a DC50 [3] of over 0.1 µM.

Molecule `COc1ccc(-c2cc3c(cnn3C)cc2Nc2cccc3c2C(=O)N(C2CCC(=O)NC2=O)C3=O)cc1F` (stereo not drawn) [Compound 14, 2-(2,6-dioxopiperidin-3-yl)-4-((6-(3-fluoro-4-methoxyphenyl)-1-methyl-1H-indazol-5-yl)amino)isoindoline-1,3-dione] has an EC50 [1] of over 0.1 µM, an activation at 1 µM [2] of 66 to 100% and a DC50 [3] of over 0.1 µM.

`Cc1cc(-c2cc3c(cnn3[C@@H]3CCOC3)cc2Nc2cccc3c2C(=O)N([C@@H]2CCC(=O)NC2=O)C3=O)ccn1` [Compound 52, 2-((R)-2,6-dioxopiperidin-3-yl)-4-((6-(2-methylpyridin-4-yl)-1-((R)-tetrahydrofuran-3-yl)-1H-indazol-5-yl)amino)isoindoline-1,3-dione] was tested, and the EC50 [1] was over 0.1 µM, the activation at 1 µM [2] was 66 to 100% and the EC50 [3] was under 0.01 µM.

For `Cc1nccc(-c2cc3c(cc2Nc2cccc4c2C(=O)N(C2CCC(=O)NC2=O)C4=O)N(C)C(=O)CC3)c1F` (stereo not drawn) [Compound 45, 2-(2,6-dioxopiperidin-3-yl)-4-((6-(3-fluoro-2-methylpyridin-4-yl)-1-methyl-2-oxo-1,2,3,4-tetrahydroquinolin-7-yl)amino)isoindoline-1,3-dione], the EC50 [1] was under 0.03 µM, the activation at 1 µM [2] was 66 to 100% and the EC50 [3] was under 0.01 µM.
